Assay results from publication PMC8245323 (2021).

How the values were obtained:
[1] = system: G4 Kit1 (FRET) (DNA, G4) GGGAGGGCGCTGGGAGGAGGG; assay: FRET melting; conditions: 60 mM potassium cacodylate; pH 7.4; increasing compound concentration up to 3 µM, 200 nM DNA
[2] = system: G4 Myc (FRET) (DNA, G4) TGAGGGTGGGTAGGGTGGGTAA; assay: FRET melting; conditions: 60 mM potassium cacodylate; pH 7.4; 1 µM compound, 200 nM DNA
[3] = system: G4 Telo (FRET) (DNA, G4) GGGTTAGGGTTAGGGTTAGGG; assay: FRET melting; conditions: 60 mM potassium cacodylate; pH 7.4; 1 µM compound, 200 nM DNA
[4] = system: G4 Telo (fluorescence quench) (DNA, G4) AGGGTTAGGGTTAGGGTTAGGGT; assay: fluorescence quench binding assay; conditions: 150 mM KCl; for Kd: 50 mM Tris HCl pH 7.2, 0.5% CHAPS, 0.05% Triton X-100, apparent, 9 nM DNA
[5] = system: G4 Kit1 (fluorescence quench) (DNA, G4) AGGGAGGGCGCTGGGAGGAGGG; assay: fluorescence quench binding assay; conditions: 150 mM KCl; for Kd: 50 mM Tris HCl pH 7.2, 0.5% CHAPS, 0.05% Triton X-100, apparent, 9 nM DNA
[6] = system: G4 Myc (fluorescence quench) (DNA, G4) TGGGGAGGGTGGGGAGGGTGGGGAAGG; assay: fluorescence quench binding assay; conditions: 150 mM KCl; for Kd: 50 mM Tris HCl pH 7.2, 0.5% CHAPS, 0.05% Triton X-100, apparent, 9 nM DNA
[7] = system: dsDNA (FRET) (DNA, hairpin, hexaethylene glycol (HEG, [(-CH2CH2O-)6]) linker between nucleotides 10 and 11) TATAGCTATATATAGCTATA; assay: FRET melting; conditions: 60 mM potassium cacodylate; pH 7.4; increasing compound concentration up to 3 µM, 200 nM DNA
[8] = system: dsDNA (fluorescence quench) (DNA, duplex) CAATCGGATCGAATTCGATCCGATTG; assay: fluorescence quench binding assay; conditions: 150 mM KCl; 50 mM Tris HCl pH 7.2, 0.5% CHAPS, 0.05% Triton X-100; apparent; 9 nM DNA
[9] = 50 mM Tris HCl pH 7.2, CHAPS, Triton X-100, highest concentration tested 5 µM

## C#CCCC1(CCC(=O)NC)N=N1
[1]
  binding: no
[2]
  ΔTm: 0 °C
[3]
  ΔTm: 0 °C
[4]; [9]
  binding: no
[5]; [9]
  binding: no
[6]; [9]
  binding: no

## C#CCCC1(CCC(=O)NCCOCCOCCNCCOc2cc(C(=O)Nc3cc(OCCN)c4ccccc4n3)nc(C(=O)Nc3cc(OCCN)c4ccccc4n3)c2)N=N1
[1]
  binding: yes
[2]
  ΔTm: 13 °C
[3]
  ΔTm: 27 °C
[7]
  binding: no
[4]
  Kd: 459 ± 25 nM
[5]
  Kd: 669 ± 49 nM
[6]
  Kd: 439 ± 36 nM
[8]
  Kd: > 5,000 nM

## C#CCCC1(CCNCCOc2cc(C(=O)Nc3cc(OCCN)c4ccccc4n3)nc(C(=O)Nc3cc(OCCN)c4ccccc4n3)c2)N=N1
[1]
  binding: yes
[2]
  ΔTm: 14 °C
[3]
  ΔTm: 25 °C
[7]
  binding: no
[4]
  Kd: 306 ± 6 nM
[5]
  Kd: 323 ± 13 nM
[6]
  Kd: 197 ± 10 nM
[8]
  Kd: > 5,000 nM

## NCCOc1cc(C(=O)Nc2cc(OCCN)c3ccccc3n2)nc(C(=O)Nc2cc(OCCN)c3ccccc3n2)c1
[6]
  Kd: 168 ± 8 nM
